This note sets out measurements from US20170000749A1, “Methods for Treating Cognitive Disorders Using Inhibitors of Histone Deacetylase” (Forum Pharmaceuticals, Inc., priority 2008, published 2017).

Broadly, the IC50 is the midpoint of a concentration-inhibition curve.

The subject of test [1] is HDAC activity in primary mouse cortical cultures. Put plainly: Whole-Cell Histone Deacetylase (HDAC) Inhibition Assay in Primary Mouse Cortical Cultures. The test is classed as cell-based. The note with it: whole-cell (WC), mouse cortical neurons, read-out: HDAC Inhibition (IC50 μM) WC mouse cortical neurons. How it is done:
Primary neocortical cultures are established through the dissection of the neocortex from E17 embryos harvested from time-pregnant Balb/C mice. Following dissection, the neocortical tissue specimens undergo digestion by incubation at 37° C. for 10 minutes in dissection medium (1×HBSS/10 mM HEPES/1 mM Sodium Pyruvate) supplemented with (0.25%) Trypsin and (0.1%) DNase I. Digested tissue is washed and resuspended in plating medium (NeuroBasal/10% HS/0.5 mM L-Glutamine (Invitrogen Corporation)) for trituration. Additional plating medium is added, and the contents are passed over a 70 um cell-strainer. The cell-density is quantified using a hemacytometer, and dilutions are made to allow for the plating of 50000 cells/well/100 uL in 96-well PDL-coated plates. Plates are incubated for 4-5 hours in 37° C./5% CO2-incubator, after which time the entire volume is exchanged to feeding medium (NeuroBasal/2% B-27 Serum-free supplement/0.5 mM L-Glutamine/1% Penicillin-Streptomycin (Invitrogen Corporation)). The cultures undergo two 50% fresh feeding medium exchanges at 3 days in vitro (DIV3), and again at DIV7.
Compounds for testing are resuspended in dimethyl sulphoxide (DMSO), and further diluted in DMSO for a ten-point dose-response curve, with appropriate controls. Each master plate is assayed in triplicate. […] Three DIV9 culture plates are leveled to 50 uL/well, onto which each has overlaid 50 uL/well of the diluted daughter plate. The plates are returned to the 37° C./5% CO2-incubator for 16-18 hours.
The next step of the assay involves the exposure of a HDAC colorimetric substrate, comprising an acetylated lysine side chain, to the compound-treated neuronal cultures. Based on the ability of the compound to inhibit HDAC activity in the neuronal cultures, the substrate is deacetylated by HDACs, and subsequently sensitized. […] Compound-incubated culture plates are again leveled to 50 uL/well and 2 uL/well of 7.5 mM BOC-Lys (Ac)-AMC substrate is added and thoroughly mixed. Plates are returned to the 37° C./5% CO2-incubator for 1 hour.
The final addition to the culture plates entails treatment with a Fluor de Lys™-based developer (BIOMOL Research Laboratories, Inc.) to produce a fluorophore, which is analyzed using a spectrophotometer. The developer solution (1×Fluor de Lys™/1% NP-40/1 uM TSA in HDAC Buffer Solution) is prepared, and 50 uL/well is added to each of the wells of the culture plates. […] The plates are returned to the 37° C./5% CO2-incubator for 10-15 minutes, after which time, they are removed and set in the dark at room temperature for 5-10 minutes.
Primary neocortical cultures were established through the dissection of the neocortex from E17 embryos harvested from time-pregnant Balb/C mice. Following dissection, the neocortical tissue specimens underwent digestion by incubation at 37° C. for 10 minutes in dissection medium (1×HBSS/10 mM HEPES/1 mM Sodium Pyruvate) supplemented with (0.25%) Trypsin and (0.1%) DNase I. Digested tissue was washed and resuspended in plating medium (NeuroBasal/10% HS/0.5 mM L-Glutamine (Invitrogen Corporation)) for trituration. Additional plating medium was added, and the contents passed over a 70 um cell-strainer. The cell-density was quantified using a hemacytometer, and dilutions made to allow for the plating of 50000 cells/well/100 uL in 96-well PDL-coated plates. Plates were incubated for 4-5 hours in 37° C./5% CO2-incubator, after which time the entire volume was exchanged to feeding medium (NeuroBasal/2% B-27 Serum-free supplement/0.5 mM L-Glutamine/l % Penicillin-Streptomycin (Invitrogen Corporation)). The cultures underwent two 50% fresh feeding medium exchanges at 3 days in vitro (DIV3), and again at DIV7.
Compounds for testing were resuspended in dimethyl sulphoxide (DMSO), and further diluted in DMSO for a ten-point dose-response curve, with appropriate controls. Each master plate was assayed in triplicate.

The target in test [2] is one or more of HDAC-1, HDAC-2, HDAC-3, HDAC-4, HDAC-5, HDAC-6, HDAC-7, HDAC-8, HDAC-9, HDAC-10 and HDAC-11. Put plainly: Inhibition of Histone Deacetylase Enzymatic Activity (Boc-Lys(Ac)-AMC substrate, Fluor-de-Lys developer). In kind it is biochemical. The conditions noted are these: read-out: HDAC Inhibition (IC50 μM) HDAC Enzyme. How it is done: The following protocol is used to assay the compounds of the disclosure.
The mixture is pre-incubated for 5 minutes at room temperature. The reaction is started by bringing the temperature to 37° C. and adding 16 μl substrate. Total reaction volume is 50 μl.
In the Tables 8, 9 and 10, A≦0.05 μM; 0.05 μM<B≦0.1 μM; 0.1 μM<C≦1 μM; and 1 μM<D≦10 μM.

Where two headings read alike, the source gives them in different places. A value given as a limit tells only on which side of the number the result lay.

Turning to `O=C(NO)c1cnc(N2CCCN(c3ncc(C(F)(F)F)cc3Cl)CC2)nc1`, the IC50 in test [1] (Table 10) was 5 to 15 µM; in test [2] (Table 10) it was under 0.05 µM.
With `O=C(NO)c1ccc(OCCN2C(=O)c3ccccc3Oc3ccccc32)c(F)c1`, the IC50 is under 1 µM in test [1] (Table 10) and 0.05 to 0.1 µM in test [2] (Table 10).
In the case of `O=C(NO)c1ccc(OCCN2C(=O)c3cc(F)ccc3Oc3ccccc32)cc1`, the half-inhibitory concentration (IC50) was under 1 µM in test [1] (Table 10) and under 0.05 µM in test [2] (Table 10).
`O=C(NO)c1ccc(OCCN2C(=O)c3ccccc3Oc3cc(Cl)ccc32)cc1`: the figures for the IC50 in test [1] (Table 10) and in test [2] (Table 10) were 1 to 5 µM and under 0.05 µM, respectively.
With `O=C(NO)c1ccc(OCC(=O)N2Cc3ccccc3Oc3ccccc32)cc1`, the values for the IC50 in test [1] (Table 10) and in test [2] (Table 10) were 1 to 5 µM and 0.1 to 1 µM, respectively.
Consider `O=C(NO)c1ccc(C2=Nc3ccccc3S(=O)(=O)c3ccccc32)cc1`, for which the IC50 was 5 to 15 µM in test [1] (Table 8) and 1 to 10 µM in test [2] (Table 8).
Regarding `O=C(NO)c1ccc(C2=Nc3ccccc3[S+]([O-])c3ccccc32)cc1` (stereo not shown), the IC50 in test [1] (Table 8) was in the range of 1 to 5 µM; in test [2] (Table 8) it was 0.1 to 1 µM.
Turning to `O=C(NO)c1ccc(C2=Nc3cncnc3N3CCc4cccc2c43)cc1`, the IC50 in test [1] (Table 8) lay within 5 to 15 µM; in test [2] (Table 8) it was 0.1 to 1 µM.
As for `O=C(NO)c1cnc(N2C[C@@H]3C[C@H]2CN3c2cccc(S(F)(F)(F)(F)F)c2)nc1`, the results for the IC50 in test [1] (Table 9) and in test [2] (Table 9) were 1 to 5 µM and under 0.05 µM, respectively.
Turning to `O=C(CCCCCCCON=C1c2ccccc2CCc2ccccc21)NO`, the results for the IC50 in test [1] (Table 10) and in test [2] (Table 10) were 1 to 5 µM and 0.1 to 1 µM, respectively.
Turning to `O=C(CCCCCCON=C1c2ccccc2CCc2ccccc21)NO`, the IC50 in test [1] (Table 10) was 1 to 5 µM; in test [2] (Table 10), 0.1 to 1 µM.
As to `O=C(CCCCCON=C1c2ccccc2CCc2ccccc21)NO`, the IC50 lay within 5 to 15 µM in test [1] (Table 10) and 0.1 to 1 µM in test [2] (Table 10).
The corresponding values for `O=C(CCCON=C1c2ccccc2CCc2ccccc21)NO` are 5 to 15 µM and 0.1 to 1 µM.
Take `O=C(NO)c1ccc(CNC2c3ccccc3CCc3ccccc32)cc1`: the concentration for half-maximal inhibition (IC50) is 5 to 15 µM in test [1] (Table 10) and under 0.05 µM in test [2] (Table 10).
Take `O=C(NO)c1ccc(CON=C2c3ccccc3CCc3ccccc32)cc1`: the 50% inhibitory concentration (IC50) in test [1] (Table 10) lay within 5 to 15 µM; in test [2] (Table 10) it was 0.1 to 1 µM.
For `O=C(/C=C/c1ccc(CNC2c3ccccc3CCc3ccccc32)cc1)NO`, the results for the IC50 in test [1] (Table 10) and in test [2] (Table 10) were 5 to 15 µM and 0.05 to 0.1 µM, respectively.
Regarding `O=C(NO)c1ccc(ON=C2c3ccccc3CCc3ccccc32)cc1`, the results for the IC50 in test [1] (Table 10) and in test [2] (Table 10) were 5 to 15 µM and 0.1 to 1 µM, respectively.
The corresponding values for `O=C(CCCCCON=c1c2ccccc2ccc2ccccc12)NO` are 5 to 15 µM and 0.1 to 1 µM.
The corresponding values for `O=C(CCCCON=C1c2ccccc2CCc2ccccc21)NO` are 5 to 15 µM and 0.1 to 1 µM.
In the case of `O=C(NO)c1cnc(N2CCN(C3c4ccccc4CCc4ccccc43)CC2)nc1`, the results for the IC50 in test [1] (Table 10) and in test [2] (Table 10) were 5 to 15 µM and 0.1 to 1 µM, respectively.
Take `O=C(NO)c1cnc(NCC2c3ccccc3CCc3ccccc32)nc1`: the IC50 was 5 to 15 µM in test [1] (Table 10) and under 0.05 µM in test [2] (Table 10).
Taken in the same sequence, the figures for `CN(c1ncc(C(=O)NO)cn1)C1c2ccccc2CCc2ccccc21` were 1 to 5 µM and under 0.05 µM.
In the case of `O=C(NO)c1cnc(NC2c3ccccc3C=Cc3ccccc32)nc1`, the IC50 was under 1 µM in test [1] (Table 10) and under 0.05 µM in test [2] (Table 10).
In the case of `O=C(CCCCCCN1c2ccccc2Oc2ccccc2S1(=O)=O)NO`, the IC50 in test [1] (Table 10) fell in the range of 1 to 5 µM; in test [2] (Table 10), 0.1 to 1 µM.
Turning to `O=C(CCCCCCC(=O)NC1c2ccccc2C=Cc2ccccc21)NO`, the IC50 in test [1] (Table 10) fell in the range of 1 to 5 µM; in test [2] (Table 10), 0.1 to 1 µM.
Consider `O=C(CCCCCC(=O)NC1c2ccccc2C=Cc2ccccc21)NO`, for which the figures for the IC50 in test [1] (Table 10) and in test [2] (Table 10) were 1 to 5 µM and 0.1 to 1 µM, respectively.
Regarding `O=C(NO)c1cnc(NC2c3ccccc3C=C(F)c3ccccc32)nc1` (stereo not shown), the IC50 in test [1] (Table 10) is under 1 µM; in test [2] (Table 10) it was under 0.05 µM.
The corresponding values for `O=C(NO)c1ccc(NC2c3ccccc3CCc3ccccc32)nc1` are under 1 µM and under 0.05 µM.
The corresponding values for `O=C(NO)c1cnc(C2c3ccccc3C=Cc3ccccc32)nc1` are over 15 µM and 0.1 to 1 µM.
Taken in the same sequence, the figures for `O=C(NO)c1cccc(OCCN2C(=O)c3ccccc3Oc3ccccc32)c1` were over 15 µM and 0.1 to 1 µM.
Consider `O=C(NO)c1ccc(OCCN2C(=O)c3ccccc3Oc3ccccc32)cc1`, for which the figures for the IC50 in test [1] (Table 10) and in test [2] (Table 10) were under 1 µM and under 0.05 µM, respectively.
As to `CN1CCC2=C(C1)Oc1ccccc1N(CCOc1ccc(C(=O)NO)cc1)C2=O`, the IC50 in test [1] (Table 10) is under 1 µM; in test [2] (Table 10), under 0.05 µM.
Taken in the same sequence, the figures for `O=C(NO)c1ccc(OCCN2C(=O)CCOc3ccccc32)cc1` were under 1 µM and under 0.05 µM.
Taken in the same sequence, the figures for `O=C(NO)c1ccc(OCCN2CCOc3ccccc3C2=O)cc1` were 1 to 5 µM and under 0.05 µM.
The corresponding values for `O=C(NO)c1ccc(OCCN2C(=O)c3cccnc3Oc3ccccc32)cc1` are under 1 µM and under 0.05 µM.
As for `O=C(NO)c1ccc(OCCN2C(=O)c3ccncc3Oc3ccccc32)cc1`, the IC50 was under 1 µM in test [1] (Table 10) and under 0.05 µM in test [2] (Table 10).
Taken in the same sequence, the figures for `O=C(/C=C/c1ccc(CN2C(=O)c3ccccc3Oc3ccccc32)cc1)NO` were 1 to 5 µM and under 0.05 µM.
In the case of `O=C(NO)c1cnc(N2CC3CC2CO3)nc1` (stereo not shown) [2-(2-oxa-5-azabicyclo[2.2.1]heptan-5-yl)-N-hydroxypyrimidine-5-carboxamide], the IC50 fell in the range of 1 to 5 µM in test [1] (Table 9) and 0.1 to 1 µM in test [2] (Table 9).
As for `N#Cc1cccc(N2CC3CC2CN3c2ncc(C(=O)NO)cn2)c1` (stereo not shown) [2-(5-(3-cyanophenyl)-2,5-diazabicyclo[2.2.1]heptan-2-yl)-N-hydroxypyrimidine-5-carboxamide], the IC50 is under 1 µM in test [1] (Table 9) and under 0.05 µM in test [2] (Table 9).
For the compound `O=C(NO)c1cnc(N2C[C@@H]3C[C@H]2CN3C(=O)C2CCCCC2)nc1` [2-((1S,4S)-5-(cyclohexanecarbonyl)-2,5-diazabicyclo[2.2.1]heptan-2-yl)-N-hydroxypyrimidine-5-carboxamide], the IC50 in test [1] (Table 9) lay within 1 to 5 µM.
Regarding `O=C(NO)c1cnc(NC(c2ccccn2)c2ccccn2)nc1` [2-(dipyridin-2-ylmethylamino)-N-hydroxypyrimidine-5-carboxamide], the IC50 in test [1] (Table 10) was under 1 µM.
Consider `CN(C)CCOc1ccc2c(c1)C(c1ccc(C(=O)NO)cc1)=Nc1ccccc1O2` [(Z)-4-(2-(2-(dimethylamino)ethoxy)dibenzo[b,f][1,4]oxazepin-11-yl)-N-hydroxybenzamide], for which the IC50 in test [1] (Table 8) is over 15 µM.
As for `O=C(NO)c1ccc(N2C[C@@H]3C[C@H]2CN3c2nccc(C(F)(F)F)n2)cc1` [N-hydroxy-4-((1S,4S)-5-(4-(trifluoromethyl)pyrimidin-2-yl)-2,5-diazabicyclo[2.2.1]heptan-2-yl)benzamide], in test [1] (Table 9), the IC50 lay in the range of 1 to 5 µM.
